The values below are quoted from earlier work in patent publication US20040127476A1, “Oral testosterone delivery system with improved sustained release” (priority 2002, published 2004).

For series [1] the following is noted: oral 200 mg twice daily, double peak effect.
For series [2] the following is noted: oral 200 mg twice daily (two doses).

Regarding `C[C@]12CC[C@H]3[C@@H](CCC4=CC(=O)CC[C@@]43C)[C@@H]1CC[C@@H]2O` [micronized testosterone, testosterone], the “time at desired level of serum testosterone, for each peak” value in series [1] is “about 4 hours”. Moreover, the “time with total serum testosterone within the normal range” value in series [2] was “greater than 12 h”.
